How the values were obtained:
Assay type in all cases: functional, cell-based
[1] = system: ASPC1; test: Cytotoxicity against human AsPC1 cells after 72 hrs by MTT assay; settings: ASPC1, 72 h
[2] = system: PANC-1; test: Cytotoxicity against human PANC1 cells after 72 hrs by MTT assay; settings: PANC-1, 72 h
[3] = system: MIA PaCa-2; test: Cytotoxicity against human MIAPaCa2 cells after 72 hrs by MTT assay; settings: MIA PaCa-2, 72 h
[4] = system: HepG2; test: Cytotoxicity against human HepG2 cells after 72 hrs by MTT assay; settings: HepG2, 72 h
[5] = system: MCF7; test: Cytotoxicity against human MCF7 cells after 72 hrs by MTT assay; settings: MCF7, 72 h
[6] = system: A549; test: Cytotoxicity against human A549 cells after 72 hrs by MTT assay; settings: A549, 72 h
[7] = system: PC-3; test: Cytotoxicity against human PC3 cells after 72 hrs by MTT assay; settings: PC-3, 72 h

SMILES: COC(=O)[C@]12CC[C@@H](C)[C@H](C)[C@H]1C1=CC[C@@H]3[C@@]4(C)CC[C@H](O)C(C)(C)[C@@H]4CC[C@@]3(C)[C@]1(C)CC2 [METHYL URSOLATE]
- IC50 [1]: 17.7 µM

SMILES: C[C@H]1[C@H](C)CC[C@]2(C(=O)n3cnnc3)CC[C@]3(C)C(=CC[C@@H]4[C@@]5(C)C/C(=C/n6cnnc6)C(=O)C(C)(C)[C@@H]5CC[C@]43C)[C@H]12
- IC50 [1]: 3.9 µM

SMILES: COC(=O)[C@]12CC[C@@H](C)[C@H](C)[C@H]1C1=CC(=O)[C@@H]3[C@@]4(C)C/C(=C/n5cnnc5)C(=O)C(C)(C)[C@@H]4CC[C@@]3(C)[C@]1(C)CC2
- IC50 [1]: 8.1 µM
- IC50 [2]: 12.1 µM
- IC50 [3]: 7.8 µM
- IC50 [4]: 7.9 µM
- IC50 [5]: 12.5 µM
- IC50 [6]: 12.9 µM
- IC50 [7]: 9.5 µM

SMILES: CC(=O)O[C@H]1CC[C@]2(C)[C@H]3CC=C4[C@@H]5[C@@H](C)[C@H](C)CC[C@]5(C(=O)n5cnnc5)CC[C@@]4(C)[C@]3(C)CC[C@H]2C1(C)C
- IC50 [1]: 23.3 µM

SMILES: CC(=O)O[C@H]1CC[C@]2(C)[C@H]3C(=O)C=C4[C@@H]5[C@@H](C)[C@H](C)CC[C@]5(C(=O)n5ccnc5)CC[C@@]4(C)[C@]3(C)CC[C@H]2C1(C)C
- IC50 [1]: 13.9 µM

SMILES: C[C@H]1[C@H](C)CC[C@]2(C(=O)n3cnnc3)CC[C@]3(C)C(=CC(=O)[C@@H]4[C@@]5(C)CCC(=O)C(C)(C)[C@@H]5CC[C@]43C)[C@H]12
- IC50 [1]: 9.9 µM

SMILES: CC(=O)O[C@H]1CC[C@]2(C)[C@H]3C(=O)C=C4[C@@H]5[C@@H](C)[C@H](C)CC[C@]5(C(=O)n5ccnc5C)CC[C@@]4(C)[C@]3(C)CC[C@H]2C1(C)C
- IC50 [1]: 15.3 µM

SMILES: Cc1nccn1C(=O)[C@]12CC[C@@H](C)[C@H](C)[C@H]1C1=CC[C@@H]3[C@@]4(C)CCC(=O)C(C)(C)[C@@H]4CC[C@@]3(C)[C@]1(C)CC2
- IC50 [1]: 19.6 µM

SMILES: Cc1nccn1/C=C1/C[C@]2(C)[C@H]3CC=C4[C@@H]5[C@@H](C)[C@H](C)CC[C@]5(C(=O)n5ccnc5C)CC[C@@]4(C)[C@]3(C)CC[C@H]2C(C)(C)C1=O
- IC50 [1]: 11.3 µM

SMILES: C[C@H]1[C@H](C)CC[C@]2(C(=O)O)CC[C@]3(C)C(=CC(=O)[C@@H]4[C@@]5(C)CCC(=O)C(C)(C)[C@@H]5CC[C@]43C)[C@H]12
- IC50 [1]: 54.9 µM

SMILES: COC(=O)[C@]12CC[C@@H](C)[C@H](C)[C@H]1C1=CC(=O)[C@@H]3[C@@]4(C)C/C(=C/O)C(=O)C(C)(C)[C@@H]4CC[C@@]3(C)[C@]1(C)CC2
- IC50 [1]: 9 µM

SMILES: CC(=O)O[C@H]1CC[C@]2(C)[C@H]3CC=C4[C@@H]5[C@@H](C)[C@H](C)CC[C@]5(C(=O)O)CC[C@@]4(C)[C@]3(C)CC[C@H]2C1(C)C [O-ACETYLURSOLIC ACID]
- IC50 [1]: 71 µM

SMILES: COC(=O)[C@]12CC[C@@H](C)[C@H](C)[C@H]1C1=CC(=O)[C@@H]3[C@@]4(C)C/C(=C/n5ccnc5C)C(=O)C(C)(C)[C@@H]4CC[C@@]3(C)[C@]1(C)CC2
- IC50 [1]: 2.1 µM
- IC50 [2]: 14.4 µM
- IC50 [3]: 8.3 µM
- IC50 [4]: 8.5 µM
- IC50 [5]: 3.5 µM
- IC50 [6]: 18.7 µM
- IC50 [7]: 5.7 µM

SMILES: COC(=O)[C@]12CC[C@@H](C)[C@H](C)[C@H]1C1=CC[C@@H]3[C@@]4(C)C/C(=C/O)C(=O)C(C)(C)[C@@H]4CC[C@@]3(C)[C@]1(C)CC2
- IC50 [1]: 7.2 µM

SMILES: COC(=O)[C@]12CC[C@@H](C)[C@H](C)[C@H]1C1=CC[C@@H]3[C@@]4(C)C/C(=C/n5ccnc5C)C(=O)C(C)(C)[C@@H]4CC[C@@]3(C)[C@]1(C)CC2
- IC50 [1]: 2.1 µM
- IC50 [2]: 5.6 µM
- IC50 [3]: 5.6 µM
- IC50 [4]: 4 µM
- IC50 [5]: 2.2 µM
- IC50 [6]: 5.3 µM
- IC50 [7]: 3.5 µM

SMILES: C[C@H]1[C@H](C)CC[C@]2(C(=O)n3ccnc3)CC[C@]3(C)C(=CC(=O)[C@@H]4[C@@]5(C)CCC(=O)C(C)(C)[C@@H]5CC[C@]43C)[C@H]12
- IC50 [1]: 11.7 µM

SMILES: C[C@H]1[C@H](C)CC[C@]2(C(=O)O)CC[C@]3(C)C(=CC[C@@H]4[C@@]5(C)CCC(=O)C(C)(C)[C@@H]5CC[C@]43C)[C@H]12 [URSONIC ACID]
- IC50 [1]: 24.5 µM

SMILES: CC(=O)O[C@H]1CC[C@]2(C)[C@H]3C(=O)C=C4[C@@H]5[C@@H](C)[C@H](C)CC[C@]5(C(=O)O)CC[C@@]4(C)[C@]3(C)CC[C@H]2C1(C)C [11-OXOURSOLIC ACID ACETATE]
- IC50 [1]: 33.5 µM

SMILES: C[C@H]1[C@H](C)CC[C@]2(C(=O)n3ccnc3)CC[C@]3(C)C(=CC[C@@H]4[C@@]5(C)C/C(=C/n6ccnc6)C(=O)C(C)(C)[C@@H]5CC[C@]43C)[C@H]12
- IC50 [1]: 5.1 µM

SMILES: Cc1nccn1C(=O)[C@]12CC[C@@H](C)[C@H](C)[C@H]1C1=CC(=O)[C@@H]3[C@@]4(C)CCC(=O)C(C)(C)[C@@H]4CC[C@@]3(C)[C@]1(C)CC2
- IC50 [1]: 5.1 µM

SMILES: C[C@H]1[C@H](C)CC[C@]2(C(=O)O)CC[C@]3(C)C(=CC[C@@H]4[C@@]5(C)C/C(=C/O)C(=O)C(C)(C)[C@@H]5CC[C@]43C)[C@H]12
- IC50 [1]: 13.4 µM

SMILES: COC(=O)[C@]12CC[C@@H](C)[C@H](C)[C@H]1C1=CC(=O)[C@@H]3[C@@]4(C)C/C(=C/n5ccnc5)C(=O)C(C)(C)[C@@H]4CC[C@@]3(C)[C@]1(C)CC2
- IC50 [1]: 2.3 µM
- IC50 [2]: 18.2 µM
- IC50 [3]: 24.3 µM
- IC50 [4]: 27.6 µM
- IC50 [5]: 9.4 µM
- IC50 [6]: 12.2 µM
- IC50 [7]: 12.9 µM

SMILES: CC(=O)O[C@H]1CC[C@]2(C)[C@H]3C(=O)C=C4[C@@H]5[C@@H](C)[C@H](C)CC[C@]5(C(=O)n5cnnc5)CC[C@@]4(C)[C@]3(C)CC[C@H]2C1(C)C
- IC50 [1]: 10.2 µM

SMILES: CC(=O)O[C@H]1CC[C@]2(C)[C@H]3CC=C4[C@@H]5[C@@H](C)[C@H](C)CC[C@]5(C(=O)n5ccnc5C)CC[C@@]4(C)[C@]3(C)CC[C@H]2C1(C)C
- IC50 [1]: 20.2 µM

SMILES: C[C@H]1[C@H](C)CC[C@]2(C(=O)n3ccnc3)CC[C@]3(C)C(=CC[C@@H]4[C@@]5(C)CCC(=O)C(C)(C)[C@@H]5CC[C@]43C)[C@H]12
- IC50 [1]: 15.2 µM

SMILES: C[C@H]1[C@H](C)CC[C@]2(C(=O)n3cnnc3)CC[C@]3(C)C(=CC[C@@H]4[C@@]5(C)CCC(=O)C(C)(C)[C@@H]5CC[C@]43C)[C@H]12
- IC50 [1]: 19.2 µM

SMILES: CC(=O)O[C@H]1CC[C@]2(C)[C@H]3CC=C4[C@@H]5[C@@H](C)[C@H](C)CC[C@]5(C(=O)n5ccnc5)CC[C@@]4(C)[C@]3(C)CC[C@H]2C1(C)C
- IC50 [1]: 15.2 µM

SMILES: COC(=O)[C@]12CC[C@@H](C)[C@H](C)[C@H]1C1=CC[C@@H]3[C@@]4(C)C/C(=C/n5ccnc5)C(=O)C(C)(C)[C@@H]4CC[C@@]3(C)[C@]1(C)CC2
- IC50 [1]: 5.8 µM
- IC50 [2]: 5.1 µM
- IC50 [3]: 7.3 µM
- IC50 [4]: 2 µM
- IC50 [5]: 5.3 µM
- IC50 [6]: 5.6 µM
- IC50 [7]: 6.8 µM

SMILES: C[C@H]1[C@H](C)CC[C@]2(C(=O)O)CC[C@]3(C)C(=CC[C@@H]4[C@@]5(C)CC[C@H](O)C(C)(C)[C@@H]5CC[C@]43C)[C@H]12 [URSOLIC ACID]
- IC50 [1]: 12.6 µM
- IC50 [2]: 14.9 µM
- IC50 [3]: 10.4 µM
- IC50 [4]: 15 µM
- IC50 [5]: 12.3 µM
- IC50 [6]: 11.4 µM
- IC50 [7]: 20.8 µM
